“Also recorded” adds a separate entry of the source. Like-named read-outs stand apart in the source and are kept apart here. No end group written: not given here.
Columns and labels:
CXCL1 = assay: Mouse RV1B infection model: CXCL1 in BAL by ELISA
Procedure: (§1) Remaining lung lobes we snap frozen in liquid nitrogen, homogenised in 600 μl PBS containing protease inhibitors (Roche) by TissueLyser II run twice at 30 Hz for 4 minutes. Cell debris was pelleted by centrifugation, samples were diluted 1:2 with PBS and stored at −80° C. BAL fluid was then analysed for production of KC/IL-8 (CXCL1) and TNF-α by Duoset ELISA (R&D Systems) as per manufacturer's instructions.

TNFα = assay: Mouse RV1B infection model: TNFα in BAL by ELISA
Procedure: as §1

[1] = test system: Rhinovirus serotype 1B (RV1B); assay: Mouse RV1B infection model: lung viral RNA by qPCR; settings: for reduction of RV infection (lung RV copy number): Study 1E: 10 pmol day −7; for RV copy number in lung: Study 1E: every dose 1-10 pmol day −7; for lung viral load: day +1
TLR-2 = TLR-2 (Homo sapiens, UniProt O60603); assay: NF-κB luciferase reporter in HEK293T cells transfected with human TLR2; format: cell-based; set-up: expressed in transfected cells; host or cells: HEK293T; settings: dose range 12.2 pM to 3.125 pM, FIG. 20
TLR-2, sequence (O60603 21-784): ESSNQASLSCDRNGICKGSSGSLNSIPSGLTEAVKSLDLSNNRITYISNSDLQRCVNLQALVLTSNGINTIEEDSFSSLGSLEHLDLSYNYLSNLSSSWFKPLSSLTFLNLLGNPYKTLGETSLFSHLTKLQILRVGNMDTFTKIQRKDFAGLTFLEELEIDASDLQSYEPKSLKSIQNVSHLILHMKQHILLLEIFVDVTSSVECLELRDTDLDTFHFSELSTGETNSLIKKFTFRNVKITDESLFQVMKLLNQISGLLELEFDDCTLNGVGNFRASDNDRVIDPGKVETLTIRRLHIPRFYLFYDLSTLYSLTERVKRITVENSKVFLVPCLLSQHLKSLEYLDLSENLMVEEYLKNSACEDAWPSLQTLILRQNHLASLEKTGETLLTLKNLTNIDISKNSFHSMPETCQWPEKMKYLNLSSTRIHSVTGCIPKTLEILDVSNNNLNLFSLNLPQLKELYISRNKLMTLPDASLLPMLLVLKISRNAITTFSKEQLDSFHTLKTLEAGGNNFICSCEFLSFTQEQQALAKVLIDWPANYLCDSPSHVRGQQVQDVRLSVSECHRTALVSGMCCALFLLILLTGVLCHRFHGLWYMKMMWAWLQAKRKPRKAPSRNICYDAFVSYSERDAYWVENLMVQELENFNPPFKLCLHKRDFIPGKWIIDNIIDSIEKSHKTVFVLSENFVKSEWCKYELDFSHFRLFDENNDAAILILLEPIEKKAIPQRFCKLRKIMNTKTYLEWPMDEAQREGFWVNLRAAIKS
TLR-2, sequence (Q15399 25-786 partner): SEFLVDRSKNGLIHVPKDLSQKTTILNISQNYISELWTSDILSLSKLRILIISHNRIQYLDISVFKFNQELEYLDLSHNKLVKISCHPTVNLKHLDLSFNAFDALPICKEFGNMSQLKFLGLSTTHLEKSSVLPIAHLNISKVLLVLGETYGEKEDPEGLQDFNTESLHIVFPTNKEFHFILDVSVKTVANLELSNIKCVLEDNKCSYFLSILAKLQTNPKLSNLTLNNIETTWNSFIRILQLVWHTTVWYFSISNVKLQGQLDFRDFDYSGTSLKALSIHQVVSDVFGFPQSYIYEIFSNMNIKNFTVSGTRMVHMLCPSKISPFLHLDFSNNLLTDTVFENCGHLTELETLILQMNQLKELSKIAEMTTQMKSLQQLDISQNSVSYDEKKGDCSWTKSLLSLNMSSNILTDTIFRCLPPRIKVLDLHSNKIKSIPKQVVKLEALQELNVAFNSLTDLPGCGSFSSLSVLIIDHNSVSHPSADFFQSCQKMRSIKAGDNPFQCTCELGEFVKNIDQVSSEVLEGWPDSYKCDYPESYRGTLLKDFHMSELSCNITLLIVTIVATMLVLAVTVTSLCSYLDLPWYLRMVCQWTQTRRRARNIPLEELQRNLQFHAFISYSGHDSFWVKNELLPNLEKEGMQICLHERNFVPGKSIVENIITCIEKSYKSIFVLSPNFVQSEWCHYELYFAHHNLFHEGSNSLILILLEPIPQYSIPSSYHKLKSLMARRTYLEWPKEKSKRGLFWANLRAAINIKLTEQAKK
Procedure: Comparison of the abilities of various compounds to stimulate luciferase activity in an NF-κB cell-based reporter system was determined. Compounds tested include INNA-006 (or compound (1)); INNA-013 (or compound (4)); INNA-014 (or compound (3)); INNA-015 (or compound (2)); INNA-010; INNA-011 (or compound (5)); INNA-012 (or compound (6)); and INNA-009. HEK293T cells, transiently co-transfected with a human TLR2 plasmid and a luciferase-NF-κB plasmid reporter system, were exposed to various dilutions of each compound. Successful receptor binding and subsequent signal transduction events were determined by measuring the luminescence due to luciferase activity (results shown in FIG. 19—left to right columns for each concentration are in the following order INNA-006 (or compound (1)); INNA-013 (or compound (4)); INNA-014 (or compound (3)); INNA-015 (or compound (2)); INNA-010; INNA-011 (or compound (5)); INNA-012 (or compound (6)); and INNA-009.
Comparison of the in vitro TLR2 agonistic activity of Pam3Cys-Ser-PEG3000 and INNA-006: HEK293T cells, transiently co-transfected with a human TLR2 plasmid and a luciferase-NF-κB plasmid reporter system, were exposed to various dilutions of INNA-006 or Pam3Cys-Ser-PEG3000.
Successful receptor binding and subsequent signal transduction events were determined by measuring the luminescence due to luciferase activity (FIG. 20).

[2] = set-up: species or system BALB/c mice; settings: mouse, in vivo
Source text: Each group contained 5 mice.

BAL inflammatory cells = assay: Mouse RV1B infection model: BAL cell analysis
Procedure: Following sacrifice, mice were tracheally cannulated and 1 ml of Hanks buffered saline solution (Hyclone™, GE Life Sciences) flushed through the airways, 3-5 times. BAL cells were pelleted by centrifugation and supernatant was collected and stored at −80° C. for ELISAs. The pelleted cells were red blood cells lysed and the remaining cells were counted on a heamocytometer by trypan blue exclusion. Cell suspensions were then cytocentrifuged onto slides and fixed and stained with Diff Quick (POCD) solutions as per manufacturer's recommendations. A minimum of 200 total cells were counted per slide and numbers of neutrophils, lymphocytes, and macrophages were determined.

[3] = format: in vivo, BALB/c mice; settings: 2 pmol INNA-006 day −7 or day −7 & −1; FP 1 hour before RV1B
Source text: Each group contained 8 mice.

TNF-α = assay: Mouse RV1B infection with fluticasone propionate: TNF-α in BAL by ELISA; format: in vivo, BALB/c mice; settings: FP treatment
[4] = test system: Rhinovirus serotype 1B (RV1B); assay: Mouse RV1B infection with fluticasone propionate: lung viral RNA by qPCR; settings: FP 1 hour before RV1B in Saline control mice
[5] = Study 1G: lowest doses (2 pmole and 1 pmole) day +1, listed as Peg-SS-Pam2Cys

In the case of “Pam2Cys-Ser-Lys-Lys-Lys-Lys (C(dipalmitoyl‑S‑glyceryl)SKKKK) [INNA-005, reference compound]”, the “CXCL1 in BAL” value (CXCL1; Study 1E: 10 pmol and 5 pmol dose day −7) is reported as “effectively reduced CXCL1 levels”, the “TNF-α in BAL” value (TNFα; Study 1E: day −7) is reported as “not increased by any of the compounds” and the “reduction in lung viral load” value ([1]; Study 1E, day −7 (discussion)) is reported as 50%. For the same compound, the “reduction of RV infection (lung RV copy number)” value [1] was 58% and the “RV copy number in lung” value ([1]; day 2 p.i.) was “significant reduction in RV infection”.
With Pam3Cys-Ser-PEG3000 the “ability to signal NF-κB (luciferase), versus INNA-006” value (TLR-2) was “inferior to INNA-006”.
In the case of Pam2Cys-SS-PEG [INNA-003], the weight loss [2] is reported as “weight loss at the higher doses”, the “weight loss after second dose” value [2] is reported as “no weight loss observed” and the “RV-induced BAL neutrophilic inflammation” value (BAL inflammatory cells; Study 1E: day −7, day 2 p.i.) is reported as “significantly reduced neutrophilic inflammation”. For the same compound, the “inflammatory potency, Peg-SS-Pam2Cys versus Peg-S-Pam2Cys” value (BAL inflammatory cells; Study 1F) was “Peg-SS-Pam2Cys more inflammatory”, the BAL neutrophils (BAL inflammatory cells; Study 1F: 2 pmol, 1 day prior to RV or mock infection) was “only significantly increased in mice with Peg-SS-Pam2Cys treatment 1 day prior to RV or mock infection” and the BAL lymphocytes (BAL inflammatory cells; Study 1F: 2 pmol, day −7, day −1 or both) was “induced by Peg-SS-Pam2Cys at all treatment times (except day −7 treatment with RV1B infection)”. The “total BAL leukocytes in RV1B infected mice” value (BAL inflammatory cells; Study 1F: 2 pmol, vs Saline RV) was “did not induce significantly higher leukocyte recruitment”, the “total BAL leukocytes in mock infected mice” value (BAL inflammatory cells; Study 1F: 2 pmol, vs Saline mock) was “Total leukocytes were increased” and the “neutrophilic response in uninfected mice” value (BAL inflammatory cells; Study 1F: three days after dosing (d-1 groups)) was “there was a neutrophilic response to Peg-SS-Pam2Cys”. The BAL lymphocytes (BAL inflammatory cells; Study 1G: day +1 treatment) was “no changes to lymphocyte numbers”, the BAL macrophages (BAL inflammatory cells; Study 1G: day +1 treatment) was “significantly reducing macrophage numbers” and the “total BAL leucocyte numbers” value (BAL inflammatory cells; Study 1G: day +1 treatment) was “no significant differences”. For the same compound, the BAL neutrophils (BAL inflammatory cells; Study 1G: day +1 treatment, listed as Peg-SS-Pam2Cys) was “drastically increases neutrophil numbers in BAL; also recorded: increasing neutrophil recruitment”, the “CXCL1 in BAL” value (CXCL1; Study 1E: every dose (1-10 pmol) day −7) was “effectively reduced CXCL1 levels” and the “CXCL1 in BAL” value (CXCL1; Study 1F: 2 pmol day −1, RV1B, listed as Peg-SS-Pam2Cys) was “CXCL1 production was only increased; also recorded: significantly increased in mice treated one day prior to infection”. The “CXCL1 / lung inflammation after day −1 dose with prior day −7 dose” value (CXCL1; Study 1F: 2 pmol day −7 and day −1, listed as Peg-SS-Pam2Cys) was “protected from lung inflammation; also recorded: completely abolished”, the “CXCL1 in BAL” value (CXCL1; Study 1G: 10-1 pmol day +1) was “dose dependent upon drug treatment” and the “CXCL1 (KC) in BAL” value (CXCL1; [5]) was “not increased by the lowest doses; also recorded: no significant increase in KC or TNFα”. The “TNF-α in BAL” value (TNFα; Study 1E: day −7, listed as Peg-SS-Pam2Cys) was “not increased by any of the compounds; also recorded: lack of induction of TNFα”, the “TNF-α in BAL” value (TNFα; Study 1F: 2 pmol, all groups) was “did not induce TNF-α in any of the groups” and the “TNF-α in BAL” value (TNFα; Study 1G: 10-1 pmol day +1) was “dose dependent upon drug treatment”. For the same compound, the “TNF-α in BAL” value (TNFα; [5]) was “not increased by the lowest doses; also recorded: no significant increase in KC or TNFα”, the “reduction of RV infection (lung RV copy number)” value [1] was 84.82% and the “anti-viral efficacy relative to Pam2CysSK4” value ([1]; Study 1E: 10 pmol dose day −7, listed as Peg-SS-Pam2Cys) was “better anti-viral efficacy compared to Pam2CysSK4”. The “RV copy number in lung” value ([1]; day 2 p.i.) was “significant reduction in RV infection”, the “reduced viral RNA” value ([1]; Study 1F: single treatment at day −7) was 70% and the “reduction in viral RNA” value ([1]; Study 1F: treatment at both days −7 and −1) was “approx. 90%”. The “RV copy numbers in lung” value ([1]; Study 1G: 10, 5, 2, 1 pmol 1 day post-infection, day 2 p.i.) was “reduces RV1B copy numbers in the lung”, the lung viral load ([1]; Study 1G: doses 5 pmole per mouse and lower) was “significant reduction in lung viral load” and the lung viral load ([1]; Study 1G: highest dose 10 pmole per mouse) was “less effective”.
In the case of `CCC(=O)O[C@]1(C(=O)SCF)[C@H](C)C[C@H]2[C@@H]3C[C@H](F)C4=CC(=O)C=C[C@]4(C)[C@@]3(F)[C@@H](O)C[C@@]21C` [FP, fluticasone propionate, reference compound], the weight loss [3] is reported as “no significant weight loss”, the “TNF-α production stimulated by INNA-006” value (TNF-α) is reported as “reduced TNF-α production stimulated by INNA-006” and the viral lung load [4] is reported as “Viral lung load was increased; also recorded: increased viral lung load in Saline control mice only”.

— patent publication US20200147028A1, “TREATMENT OF RESPIRATORY INFECTION WITH A TLR2 AGONIST” (Ena Therapeutics Pty Ltd, priority 2017, published 2020)
